Assay [1] addresses T1, GFP-PYLcs and ABIcs localization fusion proteins (Arabidopsis thaliana, UniProt Q8VZS8).
T1 construct: A fragment of PYL1 (aa 33-209) is fused to full length GFP or SOS; HA (from the reverse primer); expressed in transfected cells; host or cells: HEK 293 / HEK 293T
T1 sequence (Q8VZS8 33-209): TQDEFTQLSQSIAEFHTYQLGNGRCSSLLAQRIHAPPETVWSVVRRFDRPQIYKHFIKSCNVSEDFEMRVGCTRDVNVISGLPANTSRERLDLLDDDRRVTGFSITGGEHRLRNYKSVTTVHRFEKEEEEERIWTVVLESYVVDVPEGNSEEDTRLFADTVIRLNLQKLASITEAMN
T1 sequence (P49597 126-423 partner): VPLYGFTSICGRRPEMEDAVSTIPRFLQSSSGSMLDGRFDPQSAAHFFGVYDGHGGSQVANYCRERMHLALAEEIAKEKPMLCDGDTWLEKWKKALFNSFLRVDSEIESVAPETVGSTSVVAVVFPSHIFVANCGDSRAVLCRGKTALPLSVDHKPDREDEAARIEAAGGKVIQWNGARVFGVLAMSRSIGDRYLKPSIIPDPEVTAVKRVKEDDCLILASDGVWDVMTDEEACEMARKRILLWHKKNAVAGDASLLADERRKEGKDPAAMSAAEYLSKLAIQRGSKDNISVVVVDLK
Put plainly: ABA-induced subcellular relocalization of PYLcs fusion proteins. The class given is cell-based. The method, then:
(§1) A fragment of ABI1 (aa 126-423) is either fused to full length mouse Brg, full length mouse Numb, full length human CD4 or myristoylation signal. A fragment of PYL1 (aa 33-209) is fused to full length GFP or SOS. Full length SOS is fused either to myristoylation signal or three copies of FKBP12.
(§2) Cells grown on glass coverslips were washed in phosphate-buffered saline (PBS) and fixed with 4% paraformaldehyde (PFA, prepared in PBS) at room temperature for 20 min. After three 5-min washes in PBS, the cells were permeabilized with 5% normal goat serum and 0.1% Triton X-100 in PBS at room temperature for 30 min and incubated with primary antibodies (FLAG antibody M2, Agilent, cat. #200472-21) at 4° C. overnight in the same buffer. The slides were subsequently washed three times with PBS (5 min each wash) and then incubated with Alexa fluorophore 594-conjugated secondary antibodies (Molecular Probes) for 1 hour at room temperature in the dark. Slides were washed three times in PBS for 5 min. Finally, the slides were mounted in Vectashield containing 4′,6-diamidino-2-phenylindole (DAPI; H-1500, Vector Laboratories) and imaged (63×) with a Leica DM5000B microscope.
(§3) The area and integrated fluorescence intensity of the whole cell and the nucleus were measured with Fiji (an open-source image processing package based on ImageJ) for images from the cytoplasmic or nuclear localization experiments. The area and the integrated fluorescence intensity of the cytoplasm were calculated by subtracting the value of the nucleus from the whole cell. The mean fluorescence intensity of nucleus or cytoplasm was calculated by dividing the integrated fluorescence intensity with the area of each subcellular compartment. The ratio between nuclear or cytoplasmic distribution was calculated by comparing the corresponding mean fluorescence intensity. Twenty cells were measured in each experiment.
(§4) The activities of proteins are often regulated by their subcellular localization. In another variation of domain reconstitution, the ability of ABA-induced proximity to control the localization of a chosen protein was tested. Fusions of ABIcs to specific subcellular localization domains were constructed and ABA was used to dimerize these ABIcs localization fusion proteins to green fluorescent protein (GFP)-fused PYLcs. The relocation of GFP-PYLcs to four subcellular locations was induced by fusing ABIcs to (i) Numb to serve as a cytoplasmic localization partner (Dho, S. E. et al. (1999) Characterization of four mammalian Numb protein isoforms: Identification of cytoplasmic and membrane-associated variants of the phosphotyrosine binding domain. J. Biol. Chem. 274, 33097-33104), (ii) to a nuclear localization sequence (NLS) or to Brg1 (Brm/SWI2-related gene 1) to serve as nuclear localization partners (Khavari, P. A. et al. (1993) BRG1 contains a conserved domain of the SWI2/SNF2 family necessary for normal mitotic growth and transcription. Nature 366, 170-174), (iii) to CD4 (cluster of differentiation 4) to serve as a plasma membrane localization partner (Sattentau, Q. J. et al. (1988) The CD4 antigen: Physiological ligand and HIV receptor. Cell 52, 631-633), or (iv) to a myristoylation (myr) sequence to serve as a plasma membrane and an intracellular membrane localization partner (Holsinger, L. J. et al. (1995) Signal transduction in T lymphocytes using a conditional allele of Sos. Proc. Natl. Acad. Sci. U.S.A. 92, 9810-9814)).

Assay [2] deals with T2, GFP-PYLcs and ABIcs localization fusion proteins (Arabidopsis thaliana, UniProt Q8VZS8).
T2 construct: A fragment of PYL1 (aa 33-209) is fused to full length GFP or SOS; HA (from the reverse primer); expressed in transfected cells; host or cells: HEK 293 / HEK 293T
T2 sequence (Q8VZS8 33-209): T1 sequence (Q8VZS8 33-209)
T2 sequence (P49597 126-434 partner): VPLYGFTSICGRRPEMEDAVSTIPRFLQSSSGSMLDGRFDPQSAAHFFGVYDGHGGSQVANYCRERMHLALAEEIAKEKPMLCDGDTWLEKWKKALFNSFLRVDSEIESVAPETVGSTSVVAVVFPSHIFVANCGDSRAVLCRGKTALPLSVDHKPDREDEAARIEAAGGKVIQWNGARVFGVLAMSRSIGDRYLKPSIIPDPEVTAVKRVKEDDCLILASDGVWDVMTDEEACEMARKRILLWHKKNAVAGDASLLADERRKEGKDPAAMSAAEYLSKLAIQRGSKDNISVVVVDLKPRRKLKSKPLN
The description is as above. In kind it is cell-based. As to conditions: NLS-ABIcs present; HEK 293T cells. How it is done:
as §1, §2, §3, §4

As to `CC1=CC(=O)CC(C)(C)C1(O)/C=C/C(C)=C/C(=O)O` (centres unmarked) [ABA, abscisic acid], in assay [1] (293T cells, ABA and Rap added together), the “time to relocalization of mCherry-PYLcs to Brg-ABIcs (nucleus)” value is recorded as not above 30 min. For the same compound, the “membrane localization of GFP-PYLcs to myr-ABIcs, specificity” value in assay [1] (293T cells, ABA or Rap added) is recorded as “observed only when the matching small molecule was added”. Besides, the “time to relocation of GFP-PYLcs to the nucleus or membrane” value in assay [1] (Brg1-ABIcs or CD4-ABIcs, HEK 293T cells) was not above 30 min. The “time to cytoplasmic accumulation of GFP-PYLcs” value in assay [1] (Numb-ABIcs, HEK 293T cells) is not above 30 min. Also, the “redistribution of cytoplasmic Numb-GFP-PYLcs into the nucleus” value in assay [2] is “triggered the redistribution”.
